Laboratory results reported in patent US20090238852A1, “METHODS FOR CONTROLLING INTRACELLULAR CALCIUM LEVELS ASSOCIATED WITH AN ISCHEMIC EVENT” (University of Utah Research Foundation, priority 2008, published 2009).

Experiments:
[1] = tested on: rabbit ventricular myocytes; assay: Intracellular calcium [Ca^++]i in ventricular myocytes during paced metabolic ischemia (PMI), Fluo-3 flow cytometry; type: cell-based; settings: n = 7
Excerpt: Consequently, it prevents intracellular sodium overload and subsequent reverse mode operation of the sodium-calcium exchanger. The effect of 2-O, 3-O desulfated heparin on accumulation of intracellular Ca^++ during ischemia was studied in an adult rabbit ventricular myocyte model previously reported (Boston D R, et al. J Pharmacol Exp Ther 285:716-723, 1998; Li F, et al. J Mol Cell Cardiol 33:2145-2155, 2001). Isolated cardiomyocytes have been validated as reliable models of ischemia (Diaz, R J, Wilson G J. Cardiovasc Res 70:286-296, 2006).
To produce the model, hearts are removed from albino rabbits (2-3 kg) anesthetized with sodium pentobarbital (65 mg/kg IV). The heart was immediately attached to an aorta cannula. Continuous perfusion of the coronary arteries at 37° C. by a pump (Masterflex, Cole-Parmer Instrument Co., Chicago, Ill.) was initiated at a perfusion pressure of 60 mm Hg. The heart was first perfused with nominally Ca^++-free modified Krebs-Ringer bicarbonate buffered solution (MKRBB, pH 7.40, containing in mmol/L: NaCl 126, KCl 4.4, […], MgCl2 1.0, HEPES 24, probenecid 0.5 and glucose 5) for 10 min, immediately followed by 15-25 min of recirculating perfusion with the same solutions containing 0.3 mg/ml collagenase (Type 2, Worthington Biochemical, Freehold, N.J.), 0.4 mg/mL hyaluronidase (Type-S, Sigma-Aldrich, St. Louis, Mo.) and 50 μmol/L CaCl2. The heart was then detached from the cannula, and the left ventricle was minced and transferred to a 50 mL conical tube with the same solution containing 0.24 mg/mL collagenase, 0.02 mg/mL trypsin and 50 μmol/L Ca^++ for a second digestion. The minced tissue was continuously agitated by gassing the solution with 5% CO2 and 95% O2 to help release isolated myocytes. The resulting supernatant was transferred to another conical tube with the same volume of the same solution containing 0.03 mg/mL of trypsin inhibitor (Sigma-Aldrich). The cell suspension was centrifuged at 5×g for 5 minutes. The supernatant was discarded and cells were resuspended in solution with a higher Ca^++ concentration (200 μmol/L) and incubated in a CO2 incubator (5% CO2, 28° C.) to settle down cells by gravity for 10 min. The same procedure was repeated twice to bring up the Ca^++ concentration slowly (500, then 1000 μmol/L). Calcium step-up solutions were made from MKRBB with 2% albumin, 50 μmol/L CaCl2 mixed with the appropriate amount of minimum essential medium (MEM, Gibco Laboratories, Grand Island, N.Y.). At the end of isolation, cells were filtered with a […] to avoid cell clumping during flow cytometry studies. The yield of rod-shaped viable myocytes averaged 50%. Cells were used for experiments within 4 hours after dissociation.
In these studies, intracellular calcium concentration [Ca^++]i was measured by flow cytometry. Measurement of isolated mouse and rabbit ventricular myocyte [Ca^2+]i and [Na^+]i by flow cytometry has been described (Zhang et al., J. Cardiovasc. Pharmacol. 51: 443-449 (2008); Li et al., J. Mol. Cell. Cardiol. 33: 2145-2155 (2001)). [Ca^++]i was measured with the Ca^++ sensitive fluorescent probe, Fluo 3-AM (Molecular Probes, Eugene, Oreg.), using a FACScan (Becton-Dickinson, MA). The cells were exposed to 4 μmol/L Fluo-3 AM for 30 min at 37° C. The cells were then separated into aliquots. After 40 min of wash, the cells were exposed to paced metabolic ischemia (MI) for 45 min at 37° C. Metabolic ischemia was accomplished by incubating cells in a glucose-free MKRBB solution (pH 7.40) containing 2 mmol/L sodium cyanide (NaCN) to impair mitochondrial and glycolytic generation of ATP. To reproduce the situation in the beating ischemic heart, during the period of metabolic ischemia, myocytes were placed in a 5-well chamber with equal volumes of myocyte suspensions from the same heart dissociation placed in each well. The chamber was water bathed to maintain temperature at 37° C. and bubbled with 5% CO2 in air to keep myocytes in suspension. […]

NCE = settings: cited from earlier work
[2] = tested on: rabbit ventricular myocytes; assay: [Ca^++]i during paced aerobic metabolism (PH) with the Na^+ channel opener ATX; type: cell-based; settings: PH + ATX 20 nmol/L; n = 7; PH alone 406.8 ± 15.9
Description: (§1) In these studies, intracellular calcium concentration [Ca^++]i was measured by flow cytometry. Measurement of isolated mouse and rabbit ventricular myocyte [Ca^2+]i and [Na^+]i by flow cytometry has been described (Zhang et al., J. Cardiovasc. Pharmacol. 51: 443-449 (2008); Li et al., J. Mol. Cell. Cardiol. 33: 2145-2155 (2001)). [Ca^++]i was measured with the Ca^++ sensitive fluorescent probe, Fluo 3-AM (Molecular Probes, Eugene, Oreg.), using a FACScan (Becton-Dickinson, MA). The cells were exposed to 4 μmol/L Fluo-3 AM for 30 min at 37° C. The cells were then separated into aliquots. After 40 min of wash, the cells were exposed to paced metabolic ischemia (MI) for 45 min at 37° C. Metabolic ischemia was accomplished by incubating cells in a glucose-free MKRBB solution (pH 7.40) containing 2 mmol/L sodium cyanide (NaCN) to impair mitochondrial and glycolytic generation of ATP. To reproduce the situation in the beating ischemic heart, during the period of metabolic ischemia, myocytes were placed in a 5-well chamber with equal volumes of myocyte suspensions from the same heart dissociation placed in each well. The chamber was water bathed to maintain temperature at 37° C. and bubbled with 5% CO2 in air to keep myocytes in suspension. […] Approximately 2×10^3 myocytes were analyzed to calculate average emission fluorescence intensity in each sample. […] Only those cells with low fluorescence intensity at 670 nm (PI-negative cells or viable cells) were included in the comparative analysis of [Ca^++]i. The sample [Ca^2+]i values were calculated by Mn^2+ quenching (Sugishita et al, 2001) and [Na^+]i values by comparison with a standard curve of varied [Na^+]i versus Na Green fluorescence. […] Results were expressed as means±SEM. […]
To further examine the role of ODSH as a Na^+ inhibitor, additional experiments were performed in which the Na^+ channel opener amenone toxin II (ATX) was added to medium in a final concentration of 20 nmol/L to open the cardiac myocyte membrane Na^+ channel. […] Intracellular calcium concentration [Ca^++]i was monitored as earlier. […]

[3] = tested on: rabbit ventricular myocytes; assay: [Na^+]i in paced myocytes exposed to ATX, no metabolic inhibition; type: cell-based; settings: ATX 10 nM, HEPES + pacing; FIG. 9; n = 6
Description: as §1, with “After 40 min of wash, the cells were exposed to paced metabolic ischemia (MI) for 45 min at 37° C.” left out, “suspension. Each well was fitted with platinum sheet electrodes on both sides for field stimulation. One chamber was constructed with a glass coverslip bottom so that myocytes can be observed microscopically to assess capture threshold. Placing electrodes were connected in series to a constant current pulse generator that delivers a 0.2 ampere pulse at 0.5 Hz.” for “suspension.”

## CS(=O)(=O)O.N=C(N)SCCc1ccc(OCc2ccc([N+](=O)[O-])cc2)cc1 [KBR, 2-[2-[4-(4-nitrobenzyloxy)phenyl]ethyl]isothiourea metanesulfonate, reference compound]
[1]; Table 6: PMI + KBR 10 μmol/L, PMI alone 985.5 ± 42.7
  [Ca^++]i: 666.5 ± 50.7 nM
NCE; Iwamoto 1996
  selectivity for reserve mode versus forward mode: 50 fold

## COc1ccccc1OCC(O)CN1CCN(CC(=O)Nc2c(C)cccc2C)CC1 (stereo not drawn) [ranolazine, reference compound]
[1]; each alone: ODSH 100 μg/ml, ranolazine 10 μM, FIG. 8
  effect on [Ca^2+]i during P-MI: reduced [Ca^2+]i to a similar degree

## ATX: Na^+ channel opener; selective activator of INa,L [reference compound]
[2]
  [Ca^++]i: 529.1 ± 29.3 nM
[3]
  effect on [Na^+]i in paced myocytes: substantial increase in [Na^+]i

## CCOc1ccc(Oc2ccc(OCc3cc(F)ccc3F)cc2)c(N)c1 [SEA0400, 2-[4-[(2,5-difluorophenyl)methoxy]-phenoxy]-5-ethoxyaniline]
NCE; Matsuda 2001
  selectivity for the reverse versus forward mode of the NCE: lacks selectivity for the reverse versus forward mode of the NCE
